The source of these data is patent US9073892B2, “Indazolyl triazol derivatives” (Merck Serono S.A., priority 2010, dated 2015).

Assay [1] deals with IL1β-induced IL8 release in THP1 cells. In words: IRAK IL8 secretion functional assay. Particulars: Homo sapiens; THP-1 cells, IL1β 100 ng/ml overnight, IL8 by HTRF; read-out: IC50, Secretion THP-1/IL-β induced IL8 release. It is filed as cell-based. From the text:
IRAK IL8 Secretion Functional Assay:
THP1 cells are human monocytes derived from acute monocytic leukemia. IL1β receptor expressed on the surface membrane of THP1 cells induced IL8 release. IRAKs are kinase signaling downstream of TLRs and TNF, IL-18, IL-33 and IL-1 receptors.
In cells, IRAK4 is upstream of IRAK1.
The Human IL8 Kit, provided by CysBio International based in Bagnols/Cèze FR, allows for the quantitative determination of IL-8 in cell-culture supernatants.
Anti-cytokine IL8 antibodies are respectively labeled with europium Cryptate and XL665. Upon their binding to IL-8 molecules, the two antibodies come into close proximity, allowing FRET (Fluorescence Resonance Energy Transfer) to occur. This FRET increases proportionally to IL-8 concentrations and be converted in IL8 pg amounts.
THP-1 cells are seeded on Day 1 in 384 well plate with RPMI 1640 at a density of 30 000 cells/well. Compounds 4×/2% DMSO (range of concentrations from 20 μM to 1 nM) and IL1β 4× at 100 ng/ml final are added to cells overnight at 37° C., 5% CO2. Measurement of IL-8 secretion is done by mixing on Day2 10 μl of supernatant with 10 μl of a mix solution of europium Cryptate and XL665 (v:v) as described by supplier.
HTRF (homogeneous time resolved fluorescence) signal is measured after 3 hours incubation time at 30° C. with a BMG Pherastar reader or equivalent.
Background: TR-FRET usually uses a lanthanide donor and a delayed reading to cut background.

The next assay relates to T1, IRAK1/4 human.
T1 construct: fused on or other part: His tag and TEV cleavage site at the N-terminus
Put plainly: IRAK1/4 phosphorylation IC50 (enzymatic assay, table 2). Type of assay: biochemical. Particulars: human IRAK1/4 phosphorylation. In outline: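 The IC50 values describe inhibition of His-TEV-tagged human IRAK-1 or IRAK-4. Each enzyme was incubated with ATP and compounds in DMSO at 20 µM to 1 nM for 2 or 3 hours, with STK1-biotin peptide included for IRAK-4.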

For the compound `O=C(c1ccc(-n2cc(-c3n[nH]c4ccccc34)nn2)cc1F)N1CCOCC1` [Example 81, 3-{1-[3-fluoro-4-(morpholin-4-ylcarbonyl)phenyl]-1H-1,2,3-triazol-4-yl}-1H-indazole], the IC50 (in assay [1]; in the assay on IRAK1/4 human) was 100 to 1000 nM each time.

On to `O=C(Cc1cccc(-n2cc(-c3n[nH]c4ccccc34)nn2)c1)N1CCCC1` [Example 82, 3-{1-[3-(2-oxo-2-pyrrolidin-1-ylethyl)phenyl]-1H-1,2,3-triazol-4-yl}-1H-indazole], for which the IC50 (in assay [1]; in the assay on IRAK1/4 human) was 1000 to 5000 nM each time.

For the compound `c1cc(CCN2CCCC2)cc(-n2cc(-c3n[nH]c4ccccc34)nn2)c1` [Example 83, 3-{1-[3-(2-pyrrolidin-1-ylethyl)phenyl]-1H-1,2,3-triazol-4-yl}-1H-indazole], the IC50 in assay [1] lay in the range of 100 to 1000 nM; with IRAK1/4 human, 1000 to 5000 nM.

Take `O=C(c1ccc(-n2cc(-c3n[nH]c4ccc(C5CCNCC5)cc34)nn2)cc1)N1CCOCC1` [Example 84, 3-{1-[4-(morpholin-4-ylcarbonyl)phenyl]-1H-1,2,3-triazol-4-yl}-5-piperidin-4-yl-1H-indazole]: the IC50 was 1000 to 5000 nM in assay [1] and less than 100 nM in the assay with IRAK1/4 human.

As for `c1cc(CCCN2CCOCC2)cc(-n2cc(-c3n[nH]c4ccccc34)nn2)c1` [Example 86, 3-{1-[3-(3-morpholin-4-ylpropyl)phenyl]-1H-1,2,3-triazol-4-yl}-1H-indazole], the IC50 (in assay [1]; with IRAK1/4 human) was 1000 to 5000 nM each time.

Regarding `c1cc(CCCN2CCCC2)cc(-n2cc(-c3n[nH]c4ccccc34)nn2)c1` [Example 88, 3-{1-[3-(3-pyrrolidin-1-ylpropyl)phenyl]-1H-1,2,3-triazol-4-yl}-1H-indazole], the results for the IC50 (in assay [1]; in the assay with IRAK1/4 human) were 100 to 1000 nM and 1000 to 5000 nM, respectively.

As for `O=C(c1ccc(-n2cc(-c3n[nH]c4ccccc34)nn2)cc1Cl)N1CCOCC1` [Example 89, 3-{1-[3-chloro-4-(morpholin-4-ylcarbonyl)phenyl]-1H-1,2,3-triazol-4-yl}-1H-indazole], the results for the IC50 (in assay [1]; with IRAK1/4 human) were 1000 to 5000 nM and 100 to 1000 nM, respectively.

For `CN(C)CC1CCN(C(=O)c2ccc(-n3cc(-c4n[nH]c5ccccc45)nn3)cc2)CC1` [Example 91, 1-(1-{4-[4(1H-indazol-3-yl)-1H-1,2,3-triazol-1-yl]benzoyl}piperidin-4-yl)-N,N-dimethylmethanamine], the IC50 (in assay [1]; in the assay with IRAK1/4 human) was 100 to 1000 nM throughout.

Turning to `CN(C)CCC1CCCCN1C(=O)c1ccc(-n2cc(-c3n[nH]c4ccccc34)nn2)cc1` (centres unmarked) [Example 92], the IC50 (in assay [1]; in the assay with IRAK1/4 human) was 100 to 1000 nM each time.

Take `O=C(c1ccc(-n2cc(-c3n[nH]c4ccc(CO)cc34)nn2)cc1)N1CCOCC1` [Example 93, (3-{1-[4(morpholin-4-ylcarbonyl)phenyl]-1H-1,2,3-triazol-4-yl}-1H-indazol-5-yl)methanol]: the IC50 in assay [1] fell in the range of 1000 to 5000 nM; with IRAK1/4 human, 100 to 1000 nM.

Regarding `O=C(c1ccc(-n2cc(-c3n[nH]c4ccc(Cn5nc(-c6cc(F)cc(F)c6)ccc5=O)cc34)nn2)cc1)N1CCOCC1` [Example 94, 6-(3,5-difluorophenyl)-2-[(3-{1-[4-(morpholin-4-ylcarbonyl)phenyl]-1H-1,2,3-triazol-4-yl}-1H-indazol-5-yl)methyl]pyridazin-3(2H)-one], the results for the IC50 (in assay [1]; with IRAK1/4 human) were 100 to 1000 nM and less than 100 nM, respectively.

Take `O=C(c1ccc(-n2cc(-c3n[nH]c4ccc(Cn5ncccc5=O)cc34)nn2)cc1)N1CCOCC1` [Example 95, 2-[(3-{1-[4-(morpholin-4-ylcarbonyl)phenyl]-1H-1,2,3-triazol-4-yl}-1H-indazol-5-yl)methyl]pyridazin-3(2H)-one]: the IC50 fell in the range of 1000 to 5000 nM in assay [1] and 100 to 1000 nM in the assay with IRAK1/4 human.

Turning to `O=C(c1ccc(-n2cc(-c3n[nH]c4ccccc34)nn2)cc1)N1CCC[C@@H](O)C1` [Example 96, (3R)-1-{4-[4-(1H-indazol-3-yl)-1H-1,2,3-triazol-1-yl]benzoyl}piperidin-3-ol], the IC50 (in assay [1]; in the assay on IRAK1/4 human) was 100 to 1000 nM each time.
